Experiment [1] deals with Histone deacetylase 1 (Rattus norvegicus, UniProt Q4QQW4). The experiment in a line: Inhibition of FLAG-tagged HDAC1 in rat liver extract using fluorescent small molecule as substrate.
Experiment [2] deals with T1, Histone deacetylase 6 (Rattus norvegicus, UniProt Q99P97).
T1 sequence (Q99P97 whole entry): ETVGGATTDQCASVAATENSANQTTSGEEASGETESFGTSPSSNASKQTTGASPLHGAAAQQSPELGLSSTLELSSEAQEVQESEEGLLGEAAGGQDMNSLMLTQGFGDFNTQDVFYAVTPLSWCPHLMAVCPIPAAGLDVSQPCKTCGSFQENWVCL
The experiment in a line: Inhibition of FLAG-tagged HDAC6 in rat liver extract using alpha-Ac tubulin as substrate.

The text below walks through data of ChEMBL document CHEMBL2417402, “Development and therapeutic implications of selective histone deacetylase 6 inhibitors” (J Med Chem, 2013).

As usually defined, the IC50 is the concentration needed to halve the response being measured. Low values mean inhibition by little substance, high ones a need for much substance.

Histone deacetylase 1, sequence (Q4QQW4 whole entry): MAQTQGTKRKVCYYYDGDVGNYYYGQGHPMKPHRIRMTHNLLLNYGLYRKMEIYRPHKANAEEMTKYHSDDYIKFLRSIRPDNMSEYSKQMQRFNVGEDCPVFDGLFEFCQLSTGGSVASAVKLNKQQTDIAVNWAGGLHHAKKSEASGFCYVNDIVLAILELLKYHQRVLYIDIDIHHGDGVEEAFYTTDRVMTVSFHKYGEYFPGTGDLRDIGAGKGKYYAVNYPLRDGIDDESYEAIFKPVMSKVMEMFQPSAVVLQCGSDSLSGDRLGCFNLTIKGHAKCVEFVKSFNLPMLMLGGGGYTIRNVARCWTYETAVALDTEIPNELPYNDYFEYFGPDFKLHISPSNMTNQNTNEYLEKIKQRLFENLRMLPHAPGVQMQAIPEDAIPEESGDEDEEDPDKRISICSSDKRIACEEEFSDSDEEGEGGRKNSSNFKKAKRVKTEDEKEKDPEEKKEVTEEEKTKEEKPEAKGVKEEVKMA

As to `COC(=O)[C@H](Cc1ccccc1)NC(=O)CCCCCCCCC(=O)NO`, the results for the IC50 in experiment [1] and in experiment [2] were 28.6 µM and 0.91 µM, respectively.
